The test system of one experiment is E. coli BL21. The class given is cell-based, Escherichia coli. To be noted: for Fold change: MIC compared to that of Api-137; for MIC: microbroth dilution, 96-well plates, E. coli BL21 OD600 = 0.002 in 0.3 Tryptic Soy Broth, overnight at 37 °C, visible cell density, run in duplicate. (In general: Broth dilution looks for growth in wells or tubes with falling amounts of substance.)

The subject of a further experiment is E. coli BL21 RF2(R262C). Put plainly: Minimum inhibitory concentration against release factor mutant strain. It is filed as cell-based, Escherichia coli. The settings on record: Table 5; release factor mutant resistant to Api-137.

Read-outs that look alike come from different tables or passages of the source. Where a SMILES comes first, the peptide text is derived from it. [ ]: non-standard residue; d: D form. The star is where a group is joined. Orn(α-tetramethylguanidino) = CN(C)C(=N[C@@H](CCCN)C(=O)*)N(C)C; Arg(Me) = CNC(=N)NCCC[C@H](N)C(=O)O; dLeu(ol) = CC(C)C[C@@H](N)CO; NHIsopentyl = CC(C)CCN* A value given as a limit tells only on which side of the number the result lay.

For gu-ONNRPVYIPRPRPPHPRL-OH [Compound 22], in the experiment on E. coli BL21 (Table 3), the Fold change is recorded as 2–4. As to `CC[C@H](C)[C@H](NC(=O)[C@H](Cc1ccc(O)cc1)NC(=O)[C@@H](NC(=O)[C@@H]1CCCN1C(=O)[C@H](CCCNC(=N)N)NC(=O)[C@H](CC(N)=O)NC(=O)[C@H](CC(N)=O)NC(=O)[C@H](CCCN)N=C(N(C)C)N(C)C)C(C)C)C(=O)N1CCC[C@H]1C(=O)N[C@@H](CCCNC(=N)N)C(=O)N1CCC[C@H]1C(=O)N[C@@H](CCCNC(=N)N)C(=O)N1CCC[C@H]1C(=O)N1CCC[C@H]1C(=O)N[C@@H](Cc1c[nH]cn1)C(=O)N1CCC[C@H]1C(=O)N[C@@H](CCCNC(=N)N)C(=O)NCCC(C)C` [Compound 4] ({Orn(α-tetramethylguanidino)}-NNRPVYIPRPRPPHPR-NHIsopentyl), in the experiment with E. coli BL21 (Table 1), the minimum inhibitory concentration (MIC) (as a rule, the least concentration at which growth counts as inhibited) is greater than 40 µM. In turn, gu-ONNRPVYIPRPRPPHPRL-OH [Compound 25] registered an MIC in the experiment with E. coli BL21 (Table 3) of 0.08 to 0.16 µM. In the experiment with E. coli BL21 (Table 3), gu-ONNRPVYIPRPRPPHPRL-OH [Compound 15] came in with a Fold change of 4 and an MIC of 0.62 µM. For the compound gu-ONNRPVYIPRPRPPHPRL-OH [Compound 21], the Fold change in the experiment on E. coli BL21 (Table 3) was 2–4. For the compound `CC[C@H](C)[C@H](NC(=O)[C@H](Cc1ccc(O)cc1)NC(=O)[C@@H](NC(=O)[C@@H]1CCCN1C(=O)[C@H](CCCNC(=N)N)NC(=O)[C@H](CC(N)=O)NC(=O)[C@H](CC(N)=O)NC(=O)[C@H](CCCN)N=C(N(C)C)N(C)C)C(C)C)C(=O)N1CCC[C@H]1C(=O)N[C@@H](CCCNC(=N)N)C(=O)N1CCC[C@H]1C(=O)N[C@@H](CCCNC(=N)N)C(=O)N1CCC[C@H]1C(=O)N1CCC[C@H]1C(=O)N[C@@H](Cc1c[nH]cn1)C(=O)N1CCC[C@H]1C(=O)N[C@@H](CCCNC(=N)NC)C(=O)N[C@@H](CC(C)C)C(=O)O` [Compound 3] ({Orn(α-tetramethylguanidino)}-NNRPVYIPRPRPPHP[Arg(Me)]L-OH), the “minimum inhibitory concentration, BL21 RF2(R262C)” value in the experiment with E. coli BL21 RF2(R262C) is recorded as greater than 25. As for `CC[C@H](C)[C@H](NC(=O)[C@H](Cc1ccc(O)cc1)NC(=O)[C@@H](NC(=O)[C@@H]1CCCN1C(=O)[C@H](CCCNC(=N)N)NC(=O)[C@H](CC(N)=O)NC(=O)[C@H](CC(N)=O)NC(=O)[C@H](CCCN)N=C(N(C)C)N(C)C)C(C)C)C(=O)N1CCC[C@H]1C(=O)N[C@@H](CCCNC(=N)N)C(=O)N1CCC[C@H]1C(=O)N[C@@H](CCCNC(=N)N)C(=O)N1CCC[C@H]1C(=O)N1CCC[C@H]1C(=O)N[C@@H](Cc1c[nH]cn1)C(=O)N1CCC[C@H]1C(=O)N[C@@H](CCCNC(=N)N)C(=O)N[C@@H](CO)CC(C)C` [Compound 6] ({Orn(α-tetramethylguanidino)}-NNRPVYIPRPRPPHPR[dLeu(ol)]), the Fold change in the experiment with E. coli BL21 (Table 1) is on record as 62–128. gu-ONNRPVYIPRPRPPHPRL-OH [Compound 23]: in the experiment on E. coli BL21 (Table 3), the Fold change came out at 2 and the MIC lay in the range of 0.16 to 0.3 µM. `CC[C@H](C)[C@H](NC(=O)[C@H](Cc1ccc(O)cc1)NC(=O)[C@@H](NC(=O)[C@@H]1CCCN1C(=O)[C@H](CCCNC(=N)N)NC(=O)[C@H](CC(N)=O)NC(=O)[C@H](CC(N)=O)NC(=O)[C@H](CCCN)N=C(N(C)C)N(C)C)C(C)C)C(=O)N1CCC[C@H]1C(=O)N[C@@H](CCCNC(=N)N)C(=O)N1CCC[C@H]1C(=O)N[C@@H](CCCNC(=N)N)C(=O)N1CCC[C@H]1C(=O)N1CCC[C@H]1C(=O)N[C@@H](Cc1c[nH]c2ccccc12)C(=O)N1CCC[C@H]1C(=O)N[C@@H](CCCNC(=N)N)C(=O)N[C@@H](CC(C)C)C(=O)O` [Compound 14] ({Orn(α-tetramethylguanidino)}-NNRPVYIPRPRPPWPRL-OH): in the experiment on E. coli BL21 (Table 2), the Fold change was 8–16 and the MIC is 1.2 to 2.5 µM. In the experiment with E. coli BL21 (Table 3), gu-ONNRPVYIPRPRPPHPRL-OH [Compound 18] returned a Fold change of 4 and a minimal inhibitory concentration (MIC) of 0.62 µM.

As for gu-ONNRPVYIPRPRPPHPRL-OH [Compound 26], in the experiment with E. coli BL21 (Table 3), the Fold change was 1 and the MIC fell in the range of 0.08 to 0.16 µM.

Source of the values: PMC10768847 (Journal of medicinal chemistry, 2023).
